Data: ChEMBL document CHEMBL1201862, “PubChem BioAssay data set” (2004)
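In this assay, cells in 96-well plates receive the compound at five concentrations for 48 hours. Endpoints are linearly interpolated between the surrounding concentrations. GI50: concentration for 50% inhibition of growth.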 Activity calls are given as the source filed them. Rule as the data show it: active = GI50 up to about 1.1 µM and inactive = higher.

Key:
Experiment in all cases: DTP human tumour cell line panel, 48 h
K562 = tested on: K562
CCRF-CEM = tested on: CCRF-CEM
NCI-H226 = tested on: NCI-H226
BT-549 = tested on: BT-549
SF-295 = tested on: SF-295
M14 = tested on: M14
KM12 = tested on: KM12
SNB-19 = tested on: SNB-19
OVCAR-4 = tested on: OVCAR-4
RXF 393 = tested on: RXF 393
SK-MEL-5 = tested on: SK-MEL-5
MCF7 = tested on: MCF7
HOP-92 = tested on: HOP-92
COLO 205 = tested on: COLO 205
HCT-15 = tested on: HCT-15
TK-10 = tested on: TK-10
MDA-MB-435 = tested on: MDA-MB-435
HCT-116 = tested on: HCT-116
EKVX = tested on: EKVX
RPMI-8226 = tested on: RPMI-8226

SMILES	GI50 (K562)	GI50 (CCRF-CEM)	GI50 (NCI-H226)	GI50 (BT-549)	GI50 (SF-295)	GI50 (M14)	GI50 (KM12)	GI50 (SNB-19)	GI50 (OVCAR-4)	GI50 (RXF 393)	GI50 (SK-MEL-5)	GI50 (MCF7)	GI50 (HOP-92)	GI50 (COLO 205)	GI50 (HCT-15) [µM]	GI50 (TK-10)	GI50 (MDA-MB-435)	GI50 (HCT-116)	GI50 (EKVX)	GI50 (RPMI-8226)
COc1cccc2cc(C(=O)Nc3ccccn3)c(=N)oc12	39.4 µM (inactive)	22.8 µM (inactive)	> 100 µM (inactive)	78.2 µM (inactive)	> 100 µM (inactive)	72.8 µM (inactive)	99.3 µM (inactive)	> 100 µM (inactive)	> 100 µM (inactive)	49 µM (inactive)	> 100 µM (inactive)	19.1 µM (inactive)	> 100 µM (inactive)	> 100 µM (inactive)	> 100	> 100 µM (inactive)	63.4 µM (inactive)	83.2 µM (inactive)	> 100 µM (inactive)	75.7 µM (inactive)
O=C(CCCl)NN=C1NCCCCN1	> 100 µM (inactive)	> 100 µM (inactive)	> 100 µM (inactive)	> 100 µM (inactive)	> 100 µM (inactive)	> 100 µM (inactive)	> 100 µM (inactive)	> 100 µM (inactive)	> 100 µM (inactive)	> 100 µM (inactive)	> 100 µM (inactive)	> 100 µM (inactive)	> 100 µM (inactive)	> 100 µM (inactive)	> 100	> 100 µM (inactive)	> 100 µM (inactive)	> 100 µM (inactive)	> 100 µM (inactive)	> 100 µM (inactive)
Nc1nc(N)c2cc(Sc3ccc4ccccc4c3)ccc2n1	0.211 µM (active)	0.705 µM (active)	10.7 µM (inactive)	3.61 µM (inactive)	0.509 µM (active)	1.23 µM (inactive)	1.98 µM (inactive)	3.48 µM (inactive)	4.18 µM (inactive)	3.32 µM (inactive)	0.845 µM (active)	1.3 µM (inactive)	1.14 µM (inactive)	1.63 µM (inactive)	0.643	3.1 µM (inactive)	0.687 µM (active)	1.17 µM (inactive)	2.96 µM (inactive)	2.14 µM (inactive)
CN(C)/C=C/c1c2c(nc3ccccc13)C(=O)c1ccccc1C2=O	0.151 µM (active)	0.78 µM (active)	1.15 µM (inactive)	1.77 µM (inactive)	0.875 µM (active)	0.586 µM (active)	1.34 µM (inactive)	1.83 µM (inactive)	1.58 µM (inactive)	3.2 µM (inactive)	0.175 µM (active)	0.7 µM (active)	1.95 µM (inactive)	1.79 µM (inactive)	0.766	2.13 µM (inactive)	0.357 µM (active)	0.923 µM (active)	1.89 µM (inactive)	0.0989 µM (active)
CN(C)CCCn1c2ccccc2c2cnccc21	26.2 µM (inactive)	45.7 µM (inactive)	24.1 µM (inactive)	80.4 µM (inactive)	46.5 µM (inactive)	16.6 µM (inactive)	43.2 µM (inactive)	44.9 µM (inactive)	39.6 µM (inactive)	57.4 µM (inactive)	19.7 µM (inactive)	35.2 µM (inactive)	94.6 µM (inactive)	14.6 µM (inactive)	43.7	26.8 µM (inactive)	28.3 µM (inactive)	19.7 µM (inactive)	36.1 µM (inactive)	26.7 µM (inactive)
c1ccc2c(c1)C(=Nc1ccc(N=C3c4ccccc4-c4ccccc43)cc1)c1ccccc1-2	> 100 µM (inactive)	> 100 µM (inactive)	> 100 µM (inactive)	> 100 µM (inactive)	> 100 µM (inactive)	> 100 µM (inactive)	> 100 µM (inactive)	> 100 µM (inactive)	> 100 µM (inactive)	> 100 µM (inactive)	> 100 µM (inactive)	> 100 µM (inactive)	> 100 µM (inactive)	> 100 µM (inactive)	> 100	> 100 µM (inactive)	> 100 µM (inactive)	> 100 µM (inactive)	> 100 µM (inactive)	> 100 µM (inactive)
CN1CCN(c2c(Cl)cc(Cl)c3[nH]c4ccccc4c(=O)c23)CC1	3.66 µM (inactive)	0.67 µM (active)	9.77 µM (inactive)	16.1 µM (inactive)	5.85 µM (inactive)	6.01 µM (inactive)	6.11 µM (inactive)	6.4 µM (inactive)	11.7 µM (inactive)	12.6 µM (inactive)	9.71 µM (inactive)	1.43 µM (inactive)	1.35 µM (inactive)	4.17 µM (inactive)	3.39	10.6 µM (inactive)	5.71 µM (inactive)	3.21 µM (inactive)	10.5 µM (inactive)	3.1 µM (inactive)
O=c1c2cc(Cl)ccc2n2nnc3ccc(NCCNCCO)c1c32	0.589 µM (active)	0.56 µM (active)	2.11 µM (inactive)	1.79 µM (inactive)	0.689 µM (active)	1.38 µM (inactive)	1.09 µM (active)	1.5 µM (inactive)	1.01 µM (active)	1.79 µM (inactive)	1.48 µM (inactive)	2.76 µM (inactive)	2.02 µM (inactive)	0.977 µM (active)	0.718	2.4 µM (inactive)	1.12 µM (inactive)	0.419 µM (active)	1.93 µM (inactive)	1.53 µM (inactive)
